This passage reports TGI and GI50 results from PubChem BioAssay (NCI).

Common to all, as to assay: NCI anticancer screen, dose series, 48 h
Assay [1] has as its system HT29 colon.
For assay [2], the system named is UO-31 renal.
The test system of assay [3] is IGROV1 ovarian.
The subject of assay [4] is SNB-19 CNS.
In assay [5] the test system is A498 renal.
The test system of assay [6] is OVCAR-5 ovarian.
The test system of assay [7] is TK-10 renal.
Assay [8] deals with HCT-116 colon.
For assay [9], the system named is KM12 colon.
In assay [10] the test system is K-562 leukemia.

Values joined by “and” are separate entries in the source; they are usually repeats but may differ in a detail not shown here. Equal entries are not always repeated.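 Briefly, cells in 96-well plates were exposed to five compound concentrations for 48 h, and endpoints were estimated by linear interpolation. GI50: concentration for 50% inhibition of growth. TGI: concentration producing complete growth inhibition.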

In the case of `CSc1nnc(COc2ccc(Cl)cc2)o1`, the TGI in [1], in [2], in assay [3], in assay [4], in [5] and in assay [6] was greater than 100 µM throughout. Besides, the TGI in [7], in [8] and in assay [9] was greater than 100 µM throughout.

For the molecule `CCCCn1c(-c2ccc(C(=O)O/N=C(\N)c3ccc4c(c3)OCO4)cc2)nc(-c2ccccc2)c1-c1ccccc1`, the GI50 was 3.33 µM in assay [1]; 0.229 µM in assay [2]; 0.465 µM in [3]; 3.04 µM in [4]; 0.306 µM in assay [5]; 4.77 µM in [6]. The GI50 is 1.7 µM in assay [8] and 4.72 µM in [9]. In addition, the TGI was greater than 100 µM in assay [1]; 0.562 µM in assay [2]; 1.8 µM in assay [3]; 43.6 µM in assay [4]; 2.82 µM in assay [5]; greater than 100 µM in assay [6]. In addition, the TGI was 3.66 µM in assay [8] and greater than 100 µM in [9].

As for `c1ccc2[nH]c(-c3ccc(Nc4nc(N5CCCCC5)nc(N5CCOCC5)n4)cc3)nc2c1`, the GI50 was 2.44 µM in [1]; 2 µM in [2]; 3.73 µM in [4]; 1.77 µM in [5]; 4.06 µM in assay [6]; 3.21 µM in [7]. Besides, the GI50 in assay [8] is 1.91 µM; in assay [9], 2.85 µM. The TGI in [1] is 5.56 µM; in [2], 5.14 µM; in assay [4], 81.9 µM; in assay [5] it was 4.18 µM; in assay [6] it was 29.3 µM; in assay [7], 9.26 µM. The TGI amounted to 3.87 µM in [8] and 9.54 µM in [9].

As to `CCNC(=O)COc1ccc(Cl)cc1Cl`, the TGI in assay [1], in assay [2], in assay [3], in assay [4], in assay [5] and in assay [6] was greater than 100 µM each time. Also, the TGI in assay [8], in assay [9] and in assay [10] was greater than 100 µM in each case.

With `N/N=C1\C(=O)N(CCc2ccccc2)C(=O)C1C(=O)NCCc1ccccc1` (centres undefined), the TGI in [1], in assay [2], in assay [3], in assay [4], in [7] and in assay [8] was greater than 100 µM throughout. Further, the TGI in assay [9] and in assay [10] was greater than 100 µM each time.

As to `CC(C)(C)c1cc(C=C(C#N)C#N)cc(C(C)(C)C)c1O`, the GI50 is 0.33 µM in assay [1]; 0.493 µM in assay [3]; 0.271 µM in assay [4]; 0.158 µM in [5]; 0.402 µM in [6]; 0.336 µM in assay [7]. The TGI in assay [1] was 7.81 µM and 10.6 µM; in assay [2] it was 0.891 µM and 3.7 µM; in assay [3] it was greater than 247 µM; in [4] it was 115 µM; in assay [5], 3.83 µM and 1.76 µM; in [8] it was 1.03 µM and 3.81 µM. For the same molecule, the TGI in [10] is greater than 354 µM.

Consider `COc1cnc2c(c1)C(=O)c1c-2n(CCCN2CCN(C)CC2)c(=O)c2cc([N+](=O)[O-])ccc12`, for which the GI50 in assay [1] was 0.167 µM; in [3], 0.351 µM; in assay [4], 0.399 µM; in [6], 22.1 µM; in [7], 0.237 µM; in [9], 2.11 µM. Besides, in assay [10], the GI50 is 0.154 µM. For the same molecule, the TGI in [1] is 0.352 µM; in assay [3], 2.26 µM; in [4] it was 5.01 µM; in assay [6], 46.5 µM; in assay [7], 0.715 µM; in assay [9] it was 7.8 µM. The molecule further displayed a TGI in [10] of 0.395 µM.

For `CCC1=CC2CN(C1)Cc1c([nH]c3ccccc13)[C@@](C(=O)OC)(c1cc3c(cc1OC)N(C)[C@H]1[C@@](O)(C(=O)OC)[C@H](OC(C)=O)[C@]4(CC)C=CCN5CC[C@]31[C@@H]54)C2` (some centres undefined), the GI50 is less than 0.005 µM in [1]; 5.45 µM and 1.06 µM in assay [2]; 0.0238 µM in assay [4]; 0.014 µM and 0.0173 µM in [5]; 0.0325 µM and 0.0785 µM in assay [6]; less than 0.005 µM in [8]. Besides, the GI50 in assay [10] was less than 0.005 µM. Also, the TGI in assay [1] is 6 µM and 20.9 µM; in assay [2] it was 26.6 µM and 76.9 µM; in assay [4], greater than 100 µM; in assay [5], 0.326 µM and 0.151 µM; in assay [6], 50 µM and > 100 µM; in [8], 50 µM and > 100 µM. The TGI in [9] was 0.372 µM; in assay [10], 16.6 µM and 15.2 µM.

In the case of `COc1ccc(/C(=N\NC(=S)NN)C(c2ccc(OC)cc2)C2C(=O)Oc3ccccc32)cc1` (centres undefined), the GI50 in assay [1], in assay [2], in assay [3], in [6], in assay [7] and in assay [8] was greater than 100 µM throughout. Moreover, the GI50 in [9] and in [10] was greater than 100 µM in each case. Moreover, the TGI in assay [1], in [2], in assay [3], in assay [6], in [7] and in assay [8] was greater than 100 µM each time. Besides, the TGI in assay [9] and in assay [10] was greater than 100 µM in each case.

Consider `C[N+](C)(C)CC1CCCCC1O` (centres undefined), for which the TGI in assay [1], in assay [2], in [3], in assay [5], in assay [6] and in assay [7] was greater than 100 µM each time. Also, the TGI in assay [8] was greater than 100 µM.

For `COC(=O)C1(C(=O)OC)CC(=O)c2cc3c(cc2-c2c(cc(OC)c(OC)c2OC)C1)OCO3`, the TGI in assay [1], in assay [3], in [4], in assay [6], in [7] and in assay [8] was greater than 211 µM each time. In addition, the TGI in assay [9] and in [10] was greater than 211 µM throughout.

In the case of `N#Cc1ccc(NC(=O)C(CC(=O)OCc2ccccc2)NC(=O)OCc2ccccc2)cc1` (centres undefined), the GI50 in [1], in assay [2], in assay [3], in [4], in assay [6] and in assay [7] was greater than 100 µM throughout. Also, the GI50 in [8] and in assay [9] was greater than 100 µM throughout. For the same molecule, the TGI in assay [1], in assay [2], in assay [3], in assay [4], in assay [6] and in assay [7] was greater than 100 µM each time. Besides, the TGI in assay [8] and in [9] was greater than 100 µM in each case.

For the molecule `O=C(N/N=C/c1cccc(F)c1)c1ccncc1`, the TGI in [1], in assay [4], in [5], in assay [7], in assay [8] and in assay [9] was greater than 100 µM in each case.

For `CCOC(=O)C(NC(=O)c1nc[nH]c1[N+](=O)[O-])C(C)C` (centres undefined), the TGI in [1], in assay [2], in assay [3], in assay [4], in [5] and in assay [8] was greater than 100 µM in each case. In addition, the TGI in assay [9] and in assay [10] was greater than 100 µM each time.

Take `Cn1c2c(c3ccccc31)CCN(CCN1CCN(c3cccc(Cl)c3)CC1)C2=O`: the TGI in [1] was 41 µM; in assay [2], greater than 100 µM; in assay [3], greater than 100 µM; in assay [5], greater than 100 µM; in assay [7], greater than 100 µM; in assay [8] it was greater than 100 µM. This molecule also came in with a TGI in [10] greater than 100 µM.

For `NC(=S)NN/C=C(\C=Nc1ccccc1)[N+](=O)[O-]`, the TGI in [1], in [3], in assay [4], in assay [6], in assay [7] and in assay [8] was greater than 100 µM in each case. The molecule also displayed a TGI in assay [10] greater than 100 µM.

Turning to `CSC(=NCCc1c[nH]c2ccccc12)NC#N`, the TGI in assay [1], in [2], in assay [3], in [4], in assay [6] and in [7] was greater than 100 µM in each case. In addition, the TGI in [8], in [9] and in [10] was greater than 100 µM throughout.

With `C=C1C(=O)O[C@H]2[C@H]1CC/C(COC(=O)NCC(C)c1ccc(CC(C)C)cc1)=C\CC[C@@]1(C)O[C@@H]21` (some centres undefined), the GI50 in assay [1] was 1.03 µM; in assay [2] it was 0.474 µM; in assay [3], 0.551 µM; in assay [4], 3.82 µM; in assay [5], 4.36 µM; in [6], 3.56 µM. For the same molecule, the results for the GI50 in assay [7], in assay [8] and in assay [9] were 3.34 µM, 0.641 µM and 3.53 µM, respectively. Further, the TGI in assay [1] came to 2.52 µM; in [2], 0.909 µM; in [3], 1.18 µM; in assay [4], 7.95 µM; in [5], 8.68 µM; in assay [6], 7.73 µM. Besides, the TGI in assay [7] is 7.23 µM; in assay [8] it was 1.32 µM; in assay [9], 8.24 µM.

On to `CSC1=Nc2ccccc2N=C(c2ccc(Cl)cc2)C1`, for which the TGI in assay [1] is 90 µM; in assay [2], greater than 100 µM; in [3] it was greater than 100 µM; in assay [4], greater than 100 µM; in [6], greater than 100 µM; in [8], greater than 100 µM. In addition, the TGI in [9] and in [10] was greater than 100 µM in each case.

For `CC(C)(C)C(=O)[CH-]C(=O)C(C)(C)C.CC(C)(C)C(=O)[CH-]C(=O)C(C)(C)C.CN(C)c1ccc([O-])cc1.CN(C)c1ccc([O-])cc1.[Ti+4]`, the GI50 in assay [1] is greater than 100 µM; in assay [2] it was greater than 100 µM; in [3] it was greater than 100 µM; in assay [6], greater than 100 µM; in assay [8], greater than 100 µM; in [9], 64.8 µM. Moreover, the GI50 in assay [10] was greater than 100 µM. Besides, the TGI in [1], in assay [2], in assay [3], in [6], in [8] and in [9] was greater than 100 µM throughout. Further, the TGI in [10] is greater than 100 µM.

As for `O=S(=O)(NCCCNc1nccc(-c2c(-c3ccc(F)cc3)nc3sccn23)n1)c1ccc2ccccc2c1`, the GI50 was 2.4 µM in assay [1]; 3.58 µM in [2]; 5.37 µM in assay [3]; 8.53 µM in assay [4]; 3.01 µM in assay [5]; greater than 100 µM in assay [6]. The GI50 is 7.54 µM in assay [7], 4.41 µM in [8] and 2.86 µM in [9]. Moreover, the TGI in [1] was 7.58 µM; in assay [2] it was greater than 100 µM; in [3], greater than 100 µM; in assay [4], greater than 100 µM; in assay [5], greater than 100 µM; in assay [6] it was greater than 100 µM. For the same molecule, the TGI in [7] is greater than 100 µM; in assay [8], greater than 100 µM; in [9] it was 9.96 µM.

Regarding `COc1ccc(C(=O)c2ccc([As]=O)cc2)cc1` (centres undefined), the GI50 is 0.0489 µM in assay [1]; 0.0696 µM in assay [2]; 0.0363 µM in [3]; 0.0932 µM in [4]; 0.164 µM in [5]; 0.144 µM in [6]. Further, the GI50 in assay [7] is 0.057 µM; in assay [8] it was 0.0387 µM; in assay [9] it was 0.0801 µM. For the same molecule, the TGI in assay [1] was found to be 0.236 µM; in assay [2], 0.204 µM; in assay [3], 0.158 µM; in assay [4], 0.236 µM; in [5], 0.305 µM; in [6], 0.292 µM. In addition, the TGI in [7] amounted to 0.18 µM; in assay [8] it was 0.154 µM; in [9], 0.219 µM.

For `CC(=O)/C(=C/c1ccccc1F)C(=O)c1ccccc1`, the TGI in [1], in [2], in assay [3], in assay [4], in [5] and in assay [6] was greater than 100 µM each time. In addition, the TGI in assay [7] is 80.9 µM; in assay [8], greater than 100 µM; in assay [9], greater than 100 µM.
